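Five compound concentrations were applied to cells in 96-well plates for 48 hours; endpoints were derived by simple linear interpolation of the resulting dose-response curve. The concentration for 50% growth inhibition is given as GI50.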 Calls of active or inactive are those of the source. Rule as the data show it: active = GI50 up to about 1.1 µM and inactive = higher.

Some test systems named below: A549; DU-145; HOP-62; KM12; MCF7; MDA-MB-231; MDA-N; MOLT-4; OVCAR-4; OVCAR-5; OVCAR-8; SK-MEL-28; SK-MEL-2; SK-OV-3; SNB-19; SW-620; T47D; TK-10; UACC-257; EKVX.
What all share (assay): NCI-60 cell line screen, 48 h

For the molecule `Fc1ccc2nc3n(c2c1)C(c1c(Cl)cccc1Cl)SC3` (stereo not drawn), the GI50 with A549, in the assay with DU-145, with HOP-62, with KM12, in the assay with MCF7 and in the assay with MDA-MB-231 was > 100 µM (inactive) each time. The GI50 is 7.89 µM (inactive) in the assay on MDA-N; 6.71 µM (inactive) in the assay on MOLT-4; > 100 µM (inactive) in the assay on OVCAR-4; > 100 µM (inactive) with OVCAR-5; > 100 µM (inactive) with OVCAR-8; > 100 µM (inactive) in the assay with SK-MEL-28. Further, the GI50 with SK-MEL-2, with SK-OV-3, with SNB-19, in the assay on SW-620, in the assay with T47D and in the assay with TK-10 was > 100 µM (inactive) in each case. Besides, the GI50 in the assay with UACC-257 was > 100 µM (inactive).
With `CC(=O)OC/C=C/Cn1nc(Br)c(=O)[nH]c1=O`, the GI50 in the assay on A549, in the assay on DU-145, in the assay on EKVX, in the assay on HOP-62, in the assay with KM12 and in the assay with MCF7 was > 100 µM (inactive) each time. The GI50 with MDA-MB-231, in the assay with MDA-N, in the assay on MOLT-4, in the assay with OVCAR-4, with OVCAR-5 and in the assay on OVCAR-8 was > 100 µM (inactive) in each case. Also, the GI50 with SK-MEL-28, in the assay with SK-MEL-2, in the assay with SNB-19, in the assay on SW-620, in the assay on T47D and in the assay with TK-10 was > 100 µM (inactive) each time. For the same molecule, in the assay with UACC-257, the GI50 was > 100 µM (inactive).
`CCOC(CN(C)C(=S)Nc1cccc2ccccc12)OCC`: the GI50 with A549, in the assay with DU-145, with EKVX, in the assay with HOP-62, with KM12 and with MCF7 was > 10 µM (inactive) each time. The GI50 in the assay with MDA-MB-231, with MDA-N, with MOLT-4, with OVCAR-4, in the assay on OVCAR-8 and in the assay with SK-MEL-28 was > 10 µM (inactive) in each case. Further, the GI50 in the assay with SK-MEL-2, with SK-OV-3, in the assay with SNB-19, with SW-620, with T47D and in the assay with TK-10 was > 10 µM (inactive) throughout. Also, in the assay with UACC-257, the GI50 was > 10 µM (inactive).
As to `O=C(Nc1cnc(O)nc1O)C(Cl)Cl`, the GI50 in the assay with A549, in the assay with DU-145, in the assay with EKVX, in the assay with HOP-62, in the assay with KM12 and in the assay on MCF7 was > 100 µM (inactive) each time. For the same molecule, the GI50 in the assay with MDA-MB-231, with MDA-N, in the assay on MOLT-4, with OVCAR-4, in the assay on OVCAR-8 and in the assay with SK-MEL-28 was > 100 µM (inactive) each time. Also, the GI50 in the assay on SK-MEL-2, in the assay on SK-OV-3, in the assay with SNB-19, in the assay with SW-620, with T47D and with TK-10 was > 100 µM (inactive) throughout. In addition, in the assay with UACC-257, the GI50 is > 100 µM (inactive).
For the molecule `Cc1ccc(S(=O)(=O)NC(=O)NCC(N)=O)cc1`, the GI50 in the assay on A549, in the assay with DU-145, in the assay with HOP-62, in the assay on KM12, in the assay on MCF7 and with MDA-MB-231 was > 100 µM (inactive) each time. For the same molecule, the GI50 in the assay with MDA-N, with MOLT-4, in the assay on OVCAR-4, with OVCAR-5, in the assay with OVCAR-8 and with SK-MEL-28 was > 100 µM (inactive) in each case. Moreover, the GI50 in the assay with SK-MEL-2, with SK-OV-3, in the assay on SNB-19, in the assay on SW-620, in the assay on T47D and with TK-10 was > 100 µM (inactive) each time. In addition, the GI50 in the assay on UACC-257 was > 100 µM (inactive).
Consider `CCOC(=O)C1(C(N)=O)C(=O)c2ccncc2C1=O` (stereo not drawn), for which the GI50 in the assay with A549, in the assay with DU-145, in the assay on EKVX, with KM12, with MCF7 and in the assay on MDA-MB-231 was > 100 µM (inactive) each time. The GI50 in the assay on MDA-N, with OVCAR-4, in the assay with OVCAR-5, in the assay on OVCAR-8, in the assay with SK-MEL-28 and in the assay on SK-MEL-2 was > 100 µM (inactive) each time. For the same molecule, the GI50 with SK-OV-3, in the assay with SNB-19, in the assay on SW-620, in the assay with T47D and in the assay with UACC-257 was > 100 µM (inactive) each time.
Regarding `COC(=O)/C=C1\CCC(C)(C(=O)NS(=O)(=O)c2ccc(C)cc2)C1(C)C` (stereo not drawn), the GI50 in the assay on A549, with DU-145, in the assay on EKVX, in the assay on HOP-62, in the assay with KM12 and in the assay with MCF7 was > 100 µM (inactive) in each case. The GI50 in the assay with MDA-MB-231, with MDA-N, in the assay with MOLT-4, in the assay on OVCAR-4, in the assay with OVCAR-5 and in the assay on OVCAR-8 was > 100 µM (inactive) in each case. In addition, the GI50 in the assay with SK-MEL-2, in the assay on SK-OV-3, in the assay on SNB-19, in the assay on SW-620, with T47D and in the assay with TK-10 was > 100 µM (inactive) in each case. In addition, in the assay on UACC-257, the GI50 was > 100 µM (inactive).
On to `COc1cc(/C=C/C(=O)OC2C(O)C3CC(OC(=O)c4cc(OC)c(OC)c(OC)c4)CC2N3C)cc(OC)c1OC` (stereo not drawn), for which the GI50 is > 50 µM (inactive) in the assay with A549; > 50 µM (inactive) in the assay on DU-145; > 50 µM (inactive) with EKVX; 26.4 µM (inactive) in the assay on HOP-62; 25.3 µM (inactive) in the assay on KM12; 23 µM (inactive) with MCF7. The GI50 is 16.1 µM (inactive) with MDA-MB-231; 36.4 µM (inactive) in the assay on MDA-N; 46 µM (inactive) with MOLT-4; > 50 µM (inactive) in the assay on OVCAR-4; > 50 µM (inactive) with OVCAR-5; 12.5 µM (inactive) in the assay on OVCAR-8. The GI50 in the assay with SK-MEL-2 was 47.1 µM (inactive); with SK-OV-3, 21.8 µM (inactive); in the assay on SNB-19, 12.9 µM (inactive); in the assay with SW-620, 16 µM (inactive); with T47D, 14.5 µM (inactive); in the assay with TK-10, > 50 µM (inactive). Also, in the assay with UACC-257, the GI50 was > 50 µM (inactive).
With `CC(=O)O[C@H]1C(=O)[C@@]2(C)C(C(OC(=O)c3ccccc3)[C@]3(O)CC(OC(=O)C(O)C(NC(=O)c4ccccc4)c4cccc(Cl)c4)C(C)=C1C3(C)C)[C@]1(OC(C)=O)CO[C@@H]1C[C@@H]2O` (stereo partly drawn), the GI50 was 7.64 µM (inactive) with A549; 3.57 µM (inactive) in the assay with DU-145; 7.23 µM (inactive) in the assay on EKVX; 7.01 µM (inactive) in the assay with HOP-62; 3.72 µM (inactive) with KM12; 3.06 µM (inactive) in the assay with MCF7. Further, the GI50 in the assay on MDA-MB-231 was > 10 µM (inactive); in the assay with MDA-N, 0.984 µM (active); in the assay on MOLT-4, 4.8 µM (inactive); in the assay with OVCAR-4 it was > 10 µM (inactive); in the assay with OVCAR-5 it was 4.15 µM (inactive); in the assay on OVCAR-8, 5.92 µM (inactive). Besides, the GI50 in the assay on SK-MEL-2 is 3.39 µM (inactive); in the assay with SK-OV-3 it was > 10 µM (inactive); in the assay with SNB-19, > 10 µM (inactive); in the assay on SW-620, 6.47 µM (inactive); with T47D, 8.15 µM (inactive); in the assay with TK-10, > 10 µM (inactive). In addition, the GI50 with UACC-257 was 9.46 µM (inactive).
For the molecule `N#Cc1ccc(/C=[N+](/C=c2ccc(=C=[N-])cc2)N(CCO)C2=NCCN2)cc1`, the GI50 in the assay with A549, in the assay with DU-145, in the assay on EKVX, in the assay with HOP-62, in the assay on KM12 and with MCF7 was > 100 µM (inactive) each time. For the same molecule, the GI50 with MDA-MB-231, in the assay with MDA-N, in the assay with MOLT-4, with OVCAR-4, with OVCAR-5 and in the assay on OVCAR-8 was > 100 µM (inactive) throughout. Also, the GI50 in the assay with SK-MEL-2, in the assay with SK-OV-3, in the assay on SNB-19, in the assay on SW-620, in the assay on T47D and in the assay with TK-10 was > 100 µM (inactive) each time. The GI50 in the assay with UACC-257 was > 100 µM (inactive).

These data come from ChEMBL document CHEMBL1201862, “PubChem BioAssay data set” (2004).
